This note sets out measurements from US20220009914A1, “Analogs of Nitrofuran Antibiotics to Combat Resistance” (The Trustees of Indiana University, priority 2020, published 2022).

The test system of assay [1] is Klebsiella pneumoniae strain NCTC 9633 (ATCC #13883). Description: bacterial proliferation assay, K. pneumoniae. In kind it is cell-based. The following applies: for EC50: Klebsiella pneumoniae, read-out: Bacterial Proliferation EC50 K. pneumoniae. On the procedure: (§1) All compounds were evaluated for inhibiting the proliferation of E. coli and each of the ESKAPE bacteria. Results presented represent the averages of EC50 values obtained from at least four replicates. Evaluating compounds for inhibition of bacterial cell proliferation.
(§2) Growth Media: E. coli were grown with LB medium and all ESKAPE bacteria were grown in Brain Heart Infusion (BHI) medium (Becton, Dickinson and Company), with all liquid cultures supplemented with 25 mg/L Ca^2+ and 12.5 mg/L Mg^2+ to mimic physiological free concentrations of these cations. A 10 mg/mL Ca^2+ stock solution was prepared by dissolving 1.84 g of CaCl2.2H2O in 50 mL of deionized water, and a 10 mg/mL Mg^2+ stock solution was prepared by dissolving 4.18 g of MgCl2.6H2O in 50 mL deionized water—filter sterilized using 0.2 μm cellulose-acetate filters. 2.5 mL of the sterile 10 mg/mL Ca^2+ stock and 1.25 mL of the sterile 10 mg/mL Mg^2+ stock solutions were added per 1 L of autoclaved LB or BHI media to obtain 25 mg/L Ca^2+ and 12.5 mg/L Mg^2+ ions, respectively.
(§3) General Assay Protocol: Stock bacterial cultures were streaked onto LB or BHI agar plates and grown overnight at 37° C. Fresh aliquots of cation supplemented media were inoculated with single bacterial colonies and the cultures were grown overnight at 37° C. with shaking (240 rpm). The following morning, cultures were diluted 10-fold into fresh media and grown at 37° C. until bacteria had reached mid-log phase growth (OD600˜0.4-0.6). The cultures were then diluted into fresh media to achieve final OD600 readings of 0.017. Aliquots of these diluted cultures (30 μL) were added to clear, flat-bottom 384-well polystyrene plates that were previously stamped with 0.5 μL of test compounds in 20 μL of media (yielding initial OD600=0.01 bacterial cultures). All compounds were tested in dose-response with concentration ranges during the proliferation assays from 100 μM to 46 nM (3-fold dilution series). A second set of baseline control plates were prepared analogously, but without any bacteria added, to correct for possible compound absorbance and/or precipitation. […] Plates were then read at 600 nm using a Molecular Devices SpectraMax Plus384 microplate reader. […] Results presented represent the averages of EC50 values obtained from at least four replicates.
(§4) Evaluating analogs for inhibiting the growth of E. coli and the ESKAPE bacteria. Analogs were initially tested for antibacterial efficacy against representative strains of antibiotic-sensitive E. coli and the ESKAPE bacteria. To determine compound efficacy, bacterial proliferation assays were carried out in liquid media culture supplemented with physiological concentrations of free calcium and magnesium cations. For these assays, bacterial cultures (OD600=0.01) were exposed to test compounds in 8-point, 3-fold dilution series (100 μM to 46 nM concentration range), in 384-well plates. After addition of compounds to cultures, the plates were sealed with Breathe-Easy gas permeable membranes and allowed to grow to mid-log phase (OD600˜0.4-0.6), whereupon final OD600 readings were taken to assess for bacterial growth and inhibition.

The target of assay [2] is T1, E. coli GroEL/ES (Escherichia coli, UniProt P0A6F5).
T1 construct: made in house; host or cells: GroEL in NEB 5-alpha E. coli; GroES in E. coli BL21 (DE3)
T1 sequence (P0A6F5 2-548): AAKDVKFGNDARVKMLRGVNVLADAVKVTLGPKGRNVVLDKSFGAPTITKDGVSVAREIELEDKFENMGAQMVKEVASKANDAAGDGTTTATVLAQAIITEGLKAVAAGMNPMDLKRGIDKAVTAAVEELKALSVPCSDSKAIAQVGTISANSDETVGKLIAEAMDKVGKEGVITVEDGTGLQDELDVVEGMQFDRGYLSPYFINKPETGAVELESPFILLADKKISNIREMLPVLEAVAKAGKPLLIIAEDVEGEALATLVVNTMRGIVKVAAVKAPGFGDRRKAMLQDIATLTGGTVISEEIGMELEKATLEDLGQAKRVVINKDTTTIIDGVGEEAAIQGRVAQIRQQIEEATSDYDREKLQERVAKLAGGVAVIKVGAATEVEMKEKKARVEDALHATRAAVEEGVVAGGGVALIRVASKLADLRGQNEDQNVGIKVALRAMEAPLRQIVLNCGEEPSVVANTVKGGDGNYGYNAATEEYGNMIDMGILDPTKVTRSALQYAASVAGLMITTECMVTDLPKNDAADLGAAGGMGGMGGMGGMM
In words: GroEL/ES-mediated dMDH refolding assay in the presence of E. coli NfsB nitroreductase. In kind it is biochemical. As for the experimental part: Evaluating compounds for inhibition in the GroEL/ES-mediated dMDH refolding assay and native MDH activity counter-screen in the presence of E. coli NfsB nitroreductase. These assays were performed nearly identically to those mentioned above, but with a couple distinct modifications. For both assays, 10 μg/mL of the E. coli NfsB nitroreductase enzyme (Sigma product #N9284) was added to the initial GroEL/ES-dMDH solution. For the GroEL/ES-dMDH refolding assay, after stamping with compounds, 10 μL of a 2.4 mM NADH solution was added, followed by a 10 minute incubation period at 37° C. to bioactivate the nitrofuran analogs. The remainder of the assay was conducted as in our standard protocol where no NfsB nitroreductase was present. […] For the native MDH activity counter-screen in the presence of E. coli NfsB nitroreductase, the assay was performed as described above for the GroEL/ES-dMDH refolding assay with NfsB; however, compound addition to the assay plates was conducted after the EDTA quench step, followed by a 10 minute incubation period at 37° C. to bioactivate the nitrofuran analogs. […] Results presented represent the averages of IC50 values obtained from at least four replicates in each assay.
Evaluating analogs for inhibiting GroEL/ES-mediated substrate refolding functions in the presence of the E. coli NfsB type-1 nitroreductase. […] However, our standard GroEL/ES-mediated refolding assays and native substrate reporter counter-screens were conducted without nitroreductases present.

For assay [3], the system named is Enterobacter cloacae strain CDC 442-68 (ATCC #13047). In words: bacterial proliferation assay, E. cloacae. In kind it is cell-based. The following applies: ATCC13047, read-out: Bacterial Proliferation EC50 E. cloacae. As for the experimental part:
as §1, §2, §3, §4

The subject of assay [4] is NEB 5-alpha Escherichia coli. In words: bacterial proliferation assay, E. coli. The following applies: read-out: Bacterial Proliferation EC50 E. coli. In kind it is cell-based. As for the experimental part:
as §1, §2, §3, §4

Like-named read-outs stand apart in the source and are kept apart here. Bounds are passed on as bounds.

For the compound `O=C(N/N=C/c1ccc([N+](=O)[O-])o1)c1cccc2ccccc12` [Compound 22, N′-((5-nitrofuran-2-yl)methylene)-1-naphthohydrazide], the EC50 was above 100 µM in assay [1], above 100 µM in assay [3] and 41 µM in assay [4] (Escherichia coli). For the same compound, in assay [2], the IC50 was determined as 5.3 µM.

Take `O=C(N/N=C/c1ccc([N+](=O)[O-])o1)c1cccs1` [Compound 16, N′-((5-nitrofuran-2-yl)methylene)thiophene-2-carbohydrazide]: the “inhibition of K. pneumoniae in words” value in assay [1] was “moderate inhibitors”. For the same compound, the figures for the EC50 in assay [1], in assay [3] and in assay [4] were 16 µM, 40 µM and 0.42 µM, respectively. Also, the IC50 in assay [2] (with E. coli NfsB nitroreductase, read-out: NfsB-GroEL/ES-dMDH Refolding IC50) turned out to be 7.7 µM.

Turning to `O=C1CN(/N=C/c2ccc(O)c3ncccc23)C(=O)N1` [Compound 2, 1-(((8-hydroxyquinolin-5-yl)methylene)amino)imidazolidine-2,4-dione], the EC50 in assay [1] is above 100 µM; in assay [3], above 100 µM; in assay [4] (Escherichia coli), 80 µM. Also, the IC50 in assay [2] is above 83 µM.

For the compound `COc1ccc(C(=O)NN)cc1` [Compound 42, reference compound], the EC50 in assay [1], in assay [3] and in assay [4] (Escherichia coli) was above 100 µM in each case. The IC50 in assay [2] is above 83 µM.

Regarding `O=C(N/N=C/c1ccc(O)cc1)c1ccccc1` [Compound 36, N′-(4-hydroxybenzylidene)benzohydrazide], the EC50 in assay [1], in assay [3] and in assay [4] (Escherichia coli) was above 100 µM in each case. For the same compound, the IC50 in assay [2] is above 83 µM.

Regarding `O=C(N/N=C/c1ccc(O)c2ncccc12)c1ccccc1Oc1ccccc1` [Compound 10, N′-((8-hydroxyquinolin-5-yl)methylene)-2-phenoxybenzohydrazide], the EC50 in assay [1], in assay [3] and in assay [4] (Escherichia coli) was above 100 µM in each case. For the same compound, the IC50 in assay [2] turned out to be 15 µM.
